Test system: spinal nerve ligation (SNL) rats
Test: In vivo pain model: spinal nerve ligation (SNL), 50% withdrawal threshold with von Frey filaments
Settings: intraperitoneal dose of approximately 30 mg/kg
Description: Male Sprague-Dawley rats (120–180 g, Harlan, Indianapolis, Ind.) are pre-screened to determine their baseline 50% withdrawal threshold using a set of von Frey filaments. The 50% withdrawal threshold for mechanical stimulation to the hind paw is determined by the up-down method described by Dixon W. J., Ann.
An abrupt withdrawal of the foot during stimulation or immediately after the removal of stimulus is considered a positive response.
Whenever there is a positive or negative response, the next weaker or stronger filament is applied, respectively. The test is continued until six stimuli after the first change in response has been obtained. […] In the cases where continuous positive or negative responses are observed all the way out to the end of the stimulus spectrum, values of 0.3 g or 15.0 g are assigned, respectively.
After pre-screening, rats which display a 50% withdrawal threshold greater than 8 g are acceptable for surgery. The spinal nerve ligation (SNL) surgery is carried out as follows. Rats are anesthetized with inhaled Isoflurance and the left L5 and L6 spinal nerves are tightly ligated with 6-0 silk thread. Postoperatively, rats are placed under a heat lamp until motor function returns and then single-housed. At 5–7 days post surgery, rats are re-tested to determine their post-surgery 50% withdrawal threshold. Rats which consistently display (2 or more days) a 50% withdrawal threshold less than 4.5 g are considered acceptable for compound investigation.
Compounds are formulated in saline for injection and pH adjusted with dilute sodium hydroxide. Groups sizes are normally 5 or 6 rats. […] At 1, 3, and 6 hours post administration, the 50% withdrawal threshold is determined by an investigator who is blinded to the treatment groups. If at 6 hours, some prolonged activity is present, i.e., 50% withdrawal thresholds greater than 8 g, then later timepoints may be attempted (normally at 12 and 24 hours). Compounds can also be administered orally to determine oral activity.

Structure (SMILES)	effectiveness for treating pain / activity in the in vivo pain model
Cc1cccc(C)c1OCC(N)COc1c(F)cc(F)cc1F (stereo not drawn) [Compound 11]	some activity
Cc1cccc(Cl)c1OCC(C)(N)COc1c(C)cccc1Cl [Compound 5]	some activity
CC(N)(COc1c(F)cc(F)cc1F)COc1c(F)cc(F)cc1F [Compound 6]	not active
Cc1ccccc1OCC(C)(N)COc1ccccc1C [Compound 1]	demonstrated effectiveness for treating pain
Cc1ccccc1OCC(N)COc1ccccc1C [Compound 8]	not active
Cc1cccc(C)c1OCC(COc1c(C)cccc1C)NCCc1ccncc1 [Compound 79]	not active
